Results published in paper PMC8624133, “10th Trends in Medical Mycology Held on 8 to 11 October 2021, Aberdeen, Scotland, Organized by the European Confederation of Medical Mycology (ECMM)” (Journal of Fungi, 2021).
≈ marks a conversion by molar mass, not a printed value. Where “and” joins values, the source holds several entries; their conditions need not be identical. Equal entries are not always repeated. Residues, ends and D or L forms follow the SMILES beside them. *: point of attachment. βNA = c1ccc2cc(N*)ccc2c1

Assays:
A. fumigatus complex = conditions: share of isolates, n = 59, EUCAST clinical breakpoints
[1] = Triazole drug levels in ABPA patients with asthma; type: in vivo, human; conditions: 452 patients, Oct 2009 to March 2021
Text: Materials & Methods: This was a retrospective single-centre cohort study evaluating longitudinal outcomes in non-cystic fibrosis (CF) ABPA patients with underlying chronic lung disease (asthma), and description of treatment approaches. Statistical Analysis System (SAS) programming was used for data integration from multiple hospital electronic systems, for patient identification and data analysis. Criteria for inclusion were patients with a background of asthma, serum Total IgE >1000 IU/mL and a positive Aspergillus IgE, with or without a positive culture for A. fumigatus from a respiratory sample. Data collected included demographics, lung function severity, disease activity serological markers (Aspergillus IgE, Aspergillus IgG, Total IgE) and triazole levels. In this study the impact of fungal therapy on disease outcomes was assessed.

A. nidulans complex = conditions: all isolates, n = 2
[2] = test system: A. fumigatus veterinary isolates; test: EUCAST microdilution of veterinary isolates; type: cell-based, Aspergillus fumigatus
Protocol: All have been confirmed as A. fumigatus by MALDI-TOF MS using the BCCM/IHEM database. The antifungal susceptibility was evaluated using the microdilution EUCAST method. Cyp51A gene sequencing has been performed on all resistant isolates.

A. flavus complex = conditions: n = 6, EUCAST clinical breakpoints
[3] = test system: C. auris Isolate B and Isolate C; test: microbe, parasite or virus in culture; type: cell-based, Candida auris; conditions: for reduction in MIC: Isolate C with ERG11 WT in place of K143R
McLDM-F5-CPR = test: microbe, parasite or virus in culture; type: cell-based, Saccharomyces cerevisiae AD2Δgal; conditions: Saccharomyces cerevisiae, read-out: mean MIC
[4] = test system: azole-resistant A. fumigatus SS clinical strains; test: EUCAST E.DEF 9.3.2; type: cell-based; conditions: Aspergillus fumigatus
ISV blood levels, HPLC = type: in vivo, human; conditions: for samples with level <1 mg/L: ICU
Protocol: Materials & Methods: ISV levels are routinely tested in our centre HPLC method. The lowest limit of quantification was set at 0.15 mg/L. ISV blood levels obtained between January 2017 and May 2021 were analysed and compared between those obtained from patients in ICU vs. others. Chi-square/Fisher’s exact test and Mann-Whitney test were used for categorical and continuous variables, respectively. Levels of ISV <1 mg/L were defined as low.

[5] = test system: drug transporters of M. circinelloides and R. microsporus; test: Rhodamine 6G efflux following glucose injection; type: cell-based, Mucor circinelloides, Rhizopus microsporus
Protocol: (§1) Methods: The inhibitory effect of PaβN on transporters activity was assessed by measuring the efflux of their fluorescent substrate rhodamine 6G following glucose injection. The interaction of PaβN and posaconazole was assessed by the chequerboard dilution method in order to determine the fractional inhibitory concentration index (FICI).

[6] = test system: M. circinelloides and R. microsporus; test: Chequerboard dilution with posaconazole; type: cell-based, Mucor circinelloides, Rhizopus microsporus; conditions: PaβN + posaconazole; five ATCC or clinical isolates
Protocol: as §1

C. tropicalis = test: ARIA surveillance, CLSI M27 broth microdilution; type: cell-based, Candida tropicalis
Protocol: Materials & Methods: Isolates (n = 730) were collected and re-identified by MALDI-TOF or molecular methods. […] Percentage susceptibility (%S) or wild-type (%WT) were calculated according to CLSI breakpoints (CLSI supplement M60) or epidemiological cut-off values (CLSI supplement M59), respectively.

[7] = test system: A. fumigatus clinical isolates; test: Susceptibility of clinical isolates from CF patients; conditions: all 10 clinical isolates
[8] = test system: C. auris clinical strains; test: organism not typed; type: cell-based, Candida auris; conditions: range, 78 strains from patients with COVID-19
R. delemar 99–880 = test: CLSI M38 in vitro susceptibility; type: cell-based, Rhizopus delemar; conditions: Rhizopus delemar, read-out: MIC at 100% inhibition of growth
Protocol: (§2) Methods & Materials: In vitro susceptibility was conducted by the CLSI M38 method using a clinical isolate of Rhizopus delemar (a common cause of mucormycosis). ICR mice were immunosuppressed with cyclophosphamide and cortisone acetate on days −2, +3, and +8, relative to infection with intratracheally instilled R. delemar. […] Mice survival through Day +21 served as the primary endpoint.

[9] = test system: Rasamsonia argillacea species complex; test: Antifungal susceptibility testing; type: cell-based; conditions: sputum isolate of a CF patient
[10] = test system: A. fumigatus (resistant to posaconazole strain v79-63); test: Neutropenic animal model of invasive pulmonary aspergillosis; type: in vivo, CD-1 mice
[11] = test system: Exophiala phaeomuriformis; test: MIC, CLSI M27-A3; type: cell-based; conditions: read-out: MIC values
Protocol: Materials & Methods: The aviation kerosone samples came from an aviation company in Porto Alegre, state of Rio Grande do Sul, Brazil. The fungi isolation was carried out using the modified ASTM D6974-09 Standard. In this procedure, 500 mL kerosene samples were filtered, in triplicate, under aseptic conditions, under vacuum, using a 0.22 μm membrane (Millipore). After filtering, the membranes were deposited in potato dextrose agar culture medium. The plates were incubated in an oven at 30 °C for seven days. After this period, the colonies were isolated in new culture media for purification of the isolates. Molecular identification was performed through the sequencing of ITS DNA regions. The profile of sensitivity to clinical antifungals was assessed following protocols M27-A3 of the Clinical and Laboratory Standards Institute (CLSI).

[12] = test system: A. fumigatus strain v79-63; test: EUCAST MIC of the infecting strain; type: cell-based; conditions: Aspergillus fumigatus, V7963
McLDM strains = test: EUCAST MIC, S. cerevisiae overexpressing M. circinelloides LDM, resistance phenotypes; type: cell-based, Saccharomyces cerevisiae
[13] = test system: Phaeoacremonium parasiticum; test: Antifungal susceptibility testing; type: cell-based
Protocol: Results: Cultures for bacteria were sterile. Culture on Sabouraud was positive after 5 days of incubation, showing slow growing and initially white colonies. […] Its identification was performed by sequencing the internal transcribed spacer (ITS) region of ribosomal DNA, being the isolate identified as Phaeoacremonium parasiticum (100% homology).

Scedosporium apiospermum = test: EUCAST reference method MIC; type: cell-based
Protocol: Case presentation: A patient presented with a bursitis of their left elbow. Six months before they were treated with lymphodepleting chemotherapy directly followed by B-cell associated CD19-specific chimeric antigen receptor (CAR) T cell therapy for recurrence of follicular lymphoma. They were considered immunocompromised, with total neutrophils and lymphocytes slightly below normal levels, absent B-cells, and a treatment associated persistent hypogammaglobulinaemia. Four weeks before presentation at our hospital they contacted their GP because of swelling and pain of their left elbow. Their GP aspirated fluid from their elbow, injected steroids and started antibiotics, but now there was recurrence of swelling and pain. Bursitis without arthritis was diagnosed by a rheumatologist and the bursa was surgically opened and drained, relieving pus. The patient was started on oral flucloxacillin and sent home. Two days later the culture of the pus from the bursa grew white colonies on a Sabouraud dextrose agar plate, showing long conidophores with large oval conidia on microscopy. […] Over the next few weeks the bursitis symptoms diminished. […] Voriconazole is considered first line treatment for Scedosporium infections. […] Eight weeks later there were no signs of bursitis and posaconazole was discontinued.

eumycetoma = conditions: in vivo; cited from earlier work
Text: Mycetoma: Mycetoma is a chronic, progressive, implantation inflammatory disease characterised by severe and stigmatising deformities, disability, and high morbidity. The disease is caused by fungi (eumycetoma) and several Actinomycetales members (actinomycetoma). Its estimative global burden is 9000 cases. There are no robust epidemiological studies on mycetoma in SA, but it is tconsidered the third most prevalent endemic IM in SA, especially among low socioeconomic adult males living in rural areas from Argentina, Brazil, Colombia and Venezuela, where the principal agents are Madurella spp. a ...

R. delemar = test: Murine mucormycosis, immunosuppressed mice infected intratracheally; type: in vivo, ICR mice; conditions: n = 20/arm
Protocol: as §2

A. fumigatus strains = test: EUCAST E.DEF 9.3.2 broth microdilution; type: cell-based, Aspergillus fumigatus; set-up: MIC Range: unit not given beside the values; MIC50 / MIC90: unit not given here
Protocol: Methods: The research was conducted on 29 A. fumigatus strains. Minimum inhibitory concentrations (MIC) were detected by broth microdilution method (BM) following EUCAST definitive document E.DEF 9.3.2 and E-test in accordance with manufacturer instructions.

A. niger complex = test: EUCAST E.Def 9.3.2 susceptibility, CPA isolates; type: cell-based, Aspergillus niger complex; conditions: n = 7, ECOFFs
Rhizopus arrhizus = test: E test; type: cell-based
[14] = strain from pleural fluid of an ICU patient, no mutations in cyp51A
[15] = two strains from a cystic fibrosis patient, TR34/L98H

## C[C@@H](c1nc(-c2ccc(C#N)cc2)cs1)[C@](O)(Cn1cncn1)c1cc(F)ccc1F [isavuconazole]
A. fumigatus complex
  Resistance: 5%
[1]
  median trough drug level: 3.29 mg/L
A. nidulans complex
  resistance of isolates: resistant
[2]
  isolates in the area of technical uncertainty (ATU): 27%
  resistance of isolates: No resistance
A. flavus complex
  isolates resistant: 17%
[3]
  change of MIC: largely unchanged
  reduction in MIC: 2 fold
McLDM-F5-CPR
  MIC: 4 µg/mL (≈ 9.14 µM)
[4]; [14]
  MIC: 1 µg/mL (≈ 2.29 µM)
[4]; [15]
  MIC: 8 µg/mL (≈ 18.3 µM)
ISV blood levels, HPLC; 265 samples, 63 patients, first two months
  median blood level: 3.3 mg/L
ISV blood levels, HPLC; ICU patients
  blood level range: 0 to 8480 ng/mL
  median blood level: 1.95 mg/L
ISV blood levels, HPLC; during renal replacement therapy, 7/24
  samples with level <1 mg/L: 29.2%
ISV blood levels, HPLC; not receiving RRT, 7/46
  samples with level <1 mg/L: 15.2%
ISV blood levels, HPLC; all samples
  blood level range: 0 to 14520 ng/mL
ISV blood levels, HPLC; non-ICU patients
  blood level range: 0 to 14520 ng/mL
  median blood level: 4.1 mg/L

## NC(N)=NCCC[C@H](NC(=O)[C@@H](N)Cc1ccccc1)C(=O)Nc1ccc2ccccc2c1 [PaβN, Phenylalanine-Arginine Beta-Naphthylamide] (H-Phe-Arg-βNA)
[5]
  efflux of rhodamine 6G: decrease the efflux of rhodamine 6G
[6]
  FICI: 0.5 and 0.5 to 0.6

## CC[C@@H]([C@H](C)O)n1ncn(-c2ccc(N3CCN(c4ccc(OC[C@@H]5CO[C@@](Cn6cncn6)(c6ccc(F)cc6F)C5)cc4)CC3)cc2)c1=O [posaconazole]
A. fumigatus complex
  Resistance: 5%
[1]
  median trough drug level: 1.39 mg/L
C. tropicalis; Argentina
  WT: 57.1%
C. tropicalis; Australia, Panama, USA and Taiwan
  WT: > 90%
C. tropicalis; Italy
  WT: 47.4%
[7]
  susceptibility: susceptible
[2]
  isolates in the area of technical uncertainty (ATU): 60%
[8]
  MIC: 0.06 to 8 µg/mL (≈ 0.0856 to 11.4 µM)
R. delemar 99–880
  MIC: 0.5 µg/mL (≈ 0.713 µM)
[9]
  minimal inhibitory concentrations (MIC): high minimal inhibitory concentrations
[10]; mean ± SEM, 3 animals treated for 3 d, placebo 6.1 ± 0.08
  log10CFU/lung: 5.2 ± 0.48 log10CFU/lung
[10]; survival recorded until 15 d, IL-18 10 ng/mouse intranasally daily -2 d till +7 d, posaconazole 16 mg/kg/day, groups of 10, control 20%
  survival rates: 56%
[11]
  MIC: 0.125 µg/mL (≈ 0.178 µM)
[12]
  MIC: > 16 µg/mL
[3]
  change of MIC: largely unchanged
  reduction in MIC: 2 fold
McLDM strains
  MICs compared to AD2Δ: not affected
[13]
  minimal inhibitory concentrations (MIC), in words: low
Scedosporium apiospermum; first isolate from bursa pus
  MIC: 1 µg/mL (≈ 1.43 µM)
Scedosporium apiospermum; isolate two months later, under posaconazole
  MIC: 2 µg/mL (≈ 2.85 µM)
[4]; [14]
  MIC: 0.5 µg/mL (≈ 0.713 µM)
[4]; [15]
  MIC: 1 µg/mL (≈ 1.43 µM)
eumycetoma
  Cure rate: 25–35%
R. delemar; through Day +21, placebo 0
  % Survival: 25%
R. delemar; treatment from 24 h post infection, IBREXA 30 mg/kg po BID 7 d, LAMB 10 mg/kg iv 4 d, POSA 30 mg/kg po QD 7 d, placebo 8
  Median Survival: 13 days
A. fumigatus strains; 28 h
  MIC50: 0.25
  MIC90: 0.5
A. fumigatus strains; 28 h, 29 strains
  MIC Range: 0.125–2
A. fumigatus strains; 48 h
  MIC50: 0.25
  MIC90: 0.5
  MIC Range: 0.125–4
A. niger complex
  Non-wild type isolates: 43%
Rhizopus arrhizus
  MIC: > 32 µg/mL
